Data: patent US9266904B2, “6-bridged heteroaryldihydropyrimidines for the treatment and prophylaxis of hepatitis B virus infection” (priority 2013, dated 2016)

What follows are molecules tested on HBV replication in HepG2.2.15 cells (assay: Anti-HBV activity in vitro in HepG2.2.15 cells (extracellular HBV DNA by qPCR)). Settings: Anti-HBV activity in HepG2.2.15 cells; read-out: EC50.
Type: cell-based
Excerpt: HepG2.2.15 and HepDE19 are stably-transfected cell lines containing the HBV genome. Both cell lines are derived from the hepatoblastoma cell line Hep G2 (American Type Culture Collection, ATCC® HB-8065™) by the published procedures described in references: M A Selles et al. Proc. Natl. Acad. Sci. USA 1987, 84, 1005-1009 and H Guo et al. Journal of Virology 2007, 81, 12472-12484, respectively. Both cell lines were maintained in Dulbecco's modified Eagle's medium (DMEM)-F12 medium supplemented with 10% fetal bovine serum, 100 U/mL penicillin, 100 μg/mL streptomycin, and 0.5 mg/mL of G418.
While HepG2.2.15 cells constitutively support HBV replication and production of virus particles, HepDE19 cells are inducible by tetracycline. Addition of 1 μg/mL tetracycline in culture medium suppresses HBV replication in HepDE19 cells, whereas switching to tetracycline-free medium resumes this process.
HepG2.2.15 cells were seeded into 96-well plates (3×10^4 cells in 100 μL media per well) and incubated overnight at 37° C. The test compounds were serially half-log diluted in DMSO, then diluted 100 times in culture media. 100 μL diluted compounds were added into the plates to reach 0.5% final concentration of DMSO in every well. Five days after compound treatment, culture supernatant was collected for further analysis.
For quantitative PCR detection of extracellular HBV DNA, 100 μL culture supernatant was collected and processed in MagNA Pure 96 Nucleic Acid Purification System (Roche Applied Science) for viral DNA extraction. The extracted samples were subjected to HBV DNA quantification by qPCR. The effective compound concentration at which HBV replication is inhibited by 50% (EC50) was determined.
The Examples were tested in the above assays as described herein and found to have EC50<1 μM in HepG2.2.15 assay.
COC(=O)C1=C(CN2C3COCC2CC(O)C3)NC(c2nccs2)=N[C@H]1c1ccc(F)cc1Cl (stereo partly drawn) [Example 9, (R)-4-(2-Chloro-4-fluoro-phenyl)-6-(7-hydroxy-3-oxa-9-aza-bicyclo[3.3.1]non-9-ylmethyl)-2-thiazol-2-yl-1,4-dihydro-pyrimidine-5-carboxylic acid methyl ester] was tested, and the EC50 was 14 nM.

Same assay, conditions: Hepatitis B virus, HepG2.2.15, Anti-HBV activity in HepG2.2.15 cells; read-out: EC50
For COC(=O)C1=C(CN2C3COCC2C(O)C3)NC(c2nccs2)=N[C@H]1c1ccc(F)cc1Cl (mixture of isomers) [Example 49, Methyl (4R)-4-(2-chloro-4-fluoro-phenyl)-6-[(6-hydroxy-3-oxa-8-azabicyclo[3.2.1]octan-8-yl)methyl]-2-thiazol-2-yl-1,4-dihydropyrimidine-5-carboxylate], the EC50 was 17.2 nM. COC(=O)C1=C(CN2C3COCC2CC(C(=O)OC)C3)NC(c2nccs2)=N[C@H]1c1ccc(F)cc1Br (stereo partly drawn) [Example 4, 9-[(R)-6-(2-Bromo-4-fluoro-phenyl)-5-methoxycarbonyl-2-thiazol-2-yl-3,6-dihydro-pyrimidin-4-ylmethyl]-3-oxa-9-aza-bicyclo[3.3.1]nonane-7-carboxylic acid methyl ester] showed an EC50 of 39 nM. Molecule CNS(=O)(=O)N1CC2COCC(C1)N2CC1=C(C(=O)OC)[C@H](c2ccc(F)cc2Cl)N=C(c2nccs2)N1 [Example 16, (R)-4-(2-Chloro-4-fluoro-phenyl)-6-(7-methylsulfamoyl-3-oxa-7,9-diaza-bicyclo[3.3.1]non-9-ylmethyl)-2-thiazol-2-yl-1,4-dihydro-pyrimidine-5-carboxylic acid methyl ester] has an EC50 of 15 nM. CCOC(=O)C(C)(C)N1CC2COCC(C1)N2CC1=C(C(=O)OC)[C@H](c2ccc(F)cc2Cl)N=C(c2nccs2)N1 [Example 20, (R)-4-(2-Chloro-4-fluoro-phenyl)-6-[7-(1-ethoxycarbonyl-1-methyl-ethyl)-3-oxa-7,9-diaza-bicyclo[3.3.1]non-9-ylmethyl]-2-thiazol-2-yl-1,4-dihydro-pyrimidine-5-carboxylic acid methyl ester] was tested, and the EC50 was 35 nM. COC(=O)C1=C(CN2C3COCC2CC(CC(=O)O)C3)NC(c2nccs2)=NC1c1ccc(F)c(F)c1 (stereo not shown) [Example 27, 6-(7-Carboxymethyl-3-oxa-9-aza-bicyclo[3.3.1]non-9-ylmethyl)-4-(3,4-difluoro-phenyl)-2-thiazol-2-yl-1,4-dihydro-pyrimidine-5-carboxylic acid methyl ester] gave an EC50 of 254 nM. COC(=O)C1=C(CN2C3COCC2CC(C(O)C(=O)OC)C3)NC(c2nccs2)=N[C@H]1c1ccc(F)cc1Cl (stereo partly drawn) [Example 30, (R)-4-(2-Chloro-4-fluoro-phenyl)-6-[7-(hydroxy-methoxycarbonyl-methyl)-3-oxa-9-aza-bicyclo[3.3.1]non-9-ylmethyl]-2-thiazol-2-yl-1,4-dihydro-pyrimidine-5-carboxylic acid methyl ester] gave an EC50 of 11 nM. In the case of COC(=O)C1=C(CN2C3COCC2c2c(C)n[nH]c2C3)NC(c2nccs2)=N[C@H]1c1ccc(F)cc1Cl (stereo partly drawn) [Example 32, (R)-4-(2-Chloro-4-fluoro-phenyl)-6-(3-methyl-10-oxa-4,5,12-triaza-tricyclo[6.3.1.0*2,6*]dodeca-2(6),3-dien-12-ylmethyl)-2-thiazol-2-yl-1,4-dihydro-pyrimidine-5-carboxylic acid methyl ester], the EC50 is reported as 32 nM. Molecule COC(=O)C1=C(CN2[C@@H]3COC[C@H]2CC(OCC(=O)O)C3)NC(c2nccs2)=N[C@H]1c1ccc(F)c(F)c1 (stereo partly drawn) [Example 47, 2-[[(1R,5S)-9-[[(4S)-4-(3,4-difluorophenyl)-5-methoxycarbonyl-2-thiazol-2-yl-1,4-dihydropyrimidin-6-yl]methyl]-3-oxa-9-azabicyclo[3.3.1]nonan-7-yl]oxy]acetic acid] has an EC50 of 295 nM. COC(=O)C1=C(CN2C3COCC2C(F)C3)NC(c2nccs2)=N[C@H]1c1ccc(F)cc1Cl (stereo partly drawn) [Example 51, Methyl (4R)-4-(2-chloro-4-fluoro-phenyl)-6-[(6-fluoro-3-oxa-8-azabicyclo[3.2.1]octan-8-yl)methyl]-2-thiazol-2-yl-1,4-dihydropyrimidine-5-carboxylate] was tested, and the EC50 was 14.9 nM. Molecule COC(=O)C1=C(CN2C3COCC2C(F)c2oncc23)NC(c2nccs2)=N[C@H]1c1ccc(F)cc1Cl (stereo partly drawn) [Example 106, (4R)-4-(2-Chloro-4-fluoro-phenyl)-6-(7-fluoro-5,10-dioxa-4,12-diaza-tricyclo[6.3.1.0*2,6*]dodeca-2(6),3-dien-12-ylmethyl)-2-thiazol-2-yl-1,4-dihydropyrimidine-5-carrboxylic acid methyl ester] has an EC50 of 8.5 nM. With COC(=O)C1=C(CN2[C@H]3C[C@H](CC(=O)O)C[C@@H]2C(F)(F)C3)NC(c2nccs2)=N[C@H]1c1ccc(F)c(F)c1C [Example 112, 2-[(1S,3S,5R)-8-[[(4S)-4-(3,4-difluoro-2-methyl-phenyl)-5-methoxycarbonyl-2-thiazol-2-yl-1,4-dihydropyrimidin-6-yl]methyl]-6,6-difluoro-8-azabicyclo[3.2.1]octan-3-yl]acetic acid] the EC50 was 35.8 nM. With COC(=O)C1=C(CN2C3CC(F)(F)C2C[C@](O)(CC(=O)O)C3)NC(c2nccs2)=N[C@H]1c1ccc(F)c(F)c1C (stereo partly drawn) [Example 119, 2-[(3S)-8-[[(4S)-4-(3,4-difluoro-2-methyl-phenyl)-5-methoxycarbonyl-2-thiazol-2-yl-1,4-dihydropyrimidin-6-yl]methyl]-6,6-difluoro-3-hydroxy-8-azabicyclo[3.2.1]octan-3-yl]acetic acid] the EC50 was 21.3 nM. For COC(=O)C1=C(CN2C3CC(F)(F)C2C[C@](O)(CC(=O)O)C3)NC(c2nccs2)=N[C@H]1c1cccc(F)c1Cl (stereo partly drawn) [Example 121, 2-[(3S)-8-[[(4R)-4-(2-chloro-3-fluoro-phenyl)-5-methoxycarbonyl-2-thiazol-2-yl-1,4-dihydropyrimidin-6-yl]methyl]-6,6-difluoro-3-hydroxy-8-azabicyclo[3.2.1]octan-3-yl]acetic acid], the EC50 was 33 nM. COC(=O)C1=C(CN2C3CNC(=O)C2COC3)NC(c2nccs2)=N[C@H]1c1ccc(F)cc1Cl (stereo partly drawn) [Example 133, Methyl (4R)-4-(2-chloro-4-fluoro-phenyl)-6-[(6-oxo-3-oxa-7,9-diazabicyclo[3.3.1]nonan-9-yl)methyl]-2-thiazol-2-yl-1,4-dihydropyrimidine-5-carboxylate] was tested, and the EC50 was 34 nM. CCOC(=O)CC1(O)CC2COCC(C1O)N2CC1=C(C(=O)OC)[C@H](c2ccc(F)cc2Cl)N=C(c2nccs2)N1 (stereo partly drawn) [Example 138, Methyl (4R)-4-(2-chloro-4-fluoro-phenyl)-6-[[7-(2-ethoxy-2-oxo-ethyl)-6,7-dihydroxy-3-oxa-9-azabicyclo[3.3.1]nonan-9-yl]methyl]-2-thiazol-2-yl-1,4-dihydropyrimidine-5-carboxylate] was tested, and the EC50 was 58.2 nM. For CCOC(=O)C1=C(CN2C3COCC2CC(N)(C(=O)O)C3)NC(c2nccs2)=N[C@H]1c1cccc(F)c1F (stereo partly drawn) [Example 140, 7-amino-9-[[(4R)-4-(2,3-difluorophenyl)-5-ethoxycarbonyl-2-thiazol-2-yl-1,4-dihydropyrimidin-6-yl]methyl]-3-oxa-9-azabicyclo[3.3.1]nonane-7-carboxylic acid], the EC50 was 103 nM. CCOC(=O)C1=C(CN2C3COCC2CC(N)(C(=O)O)C3)NC(c2nccs2)=N[C@H]1c1ccc(F)cc1Br (stereo partly drawn) [Example 141, 7-amino-9-[[(4R)-4-(2-bromo-4-fluoro-phenyl)-5-ethoxycarbonyl-2-thiazol-2-yl-1,4-dihydropyrimidin-6-yl]methyl]-3-oxa-9-azabicyclo[3.3.1]nonane-7-carboxylic acid] showed an EC50 of 271 nM. Work on COC(=O)C1=C(CN2CC3CCC(C2)O3)NC(c2nccs2)=N[C@H]1c1ccc(F)cc1Cl [Example 142, Methyl (4R)-4-(2-chloro-4-fluoro-phenyl)-6-(8-oxa-3-azabicyclo[3.2.1]octan-3-ylmethyl)-2-thiazol-2-yl-1,4-dihydropyrimidine-5-carboxylate] yielded an EC50 of 130 nM. In the case of COC(=O)C1=C(CN2CC3CC2CC3(F)F)NC(c2nccs2)=N[C@H]1c1ccc(F)cc1Cl (stereo partly drawn) [Example 143, Methyl (4R)-4-(2-chloro-4-fluoro-phenyl)-6-[(5,5-difluoro-2-azabicyclo[2.2.1]heptan-2-yl)methyl]-2-thiazol-2-yl-1,4-dihydropyrimidine-5-carboxylate], the EC50 is reported as 41 nM. In the case of COC(=O)C1=C(CN2CC3CC2C(F)(F)C3)NC(c2nccs2)=N[C@H]1c1ccc(F)cc1Cl (stereo partly drawn) [Example 144, Methyl (4R)-4-(2-chloro-4-fluoro-phenyl)-6-[(5,5-difluoro-3-azabicyclo[2.2.1]heptan-3-yl)methyl]-2-thiazol-2-yl-1,4-dihydropyrimidine-5-carboxylate], the EC50 is reported as 94 nM. For COC(=O)C1=C(CN2C3CC(F)(F)C2C[C@@H]3C(=O)O)NC(c2nccs2)=N[C@H]1c1ccc(F)cc1Cl (stereo partly drawn) [Example 151, (5S)-7-[[(4R)-4-(2-chloro-4-fluoro-phenyl)-5-methoxycarbonyl-2-thiazol-2-yl-1,4-dihydropyrimidin-6-yl]methyl]-2,2-difluoro-7-azabicyclo[2.2.1]heptane-5-carboxylic acid], the EC50 was 29.5 nM.
